Five compounds from patent publication US20250109275A1, “AMINE FATTY ACID ADDUCTS AS TIRE COMPOUNDING ADDITIVES” (priority 2023, published 2025) can be followed below.

Data set [1] is described as follows: Pour point of the additive. The format is physicochemical. The arrangement: unit not given here. Conditions: neat additive.
Data set [2] in a line: Flash point of the additive. The class given is physicochemical. Conditions: neat additive.
The conditions of data set [3]: neat additive. The source says:
Additional characteristics of the exemplary additives and controls are shown below in Table 9. […] The Control and Control 2 are the presented formula without an additive included. […] Blend 1 is the presented formula with a blend of rosin ester tackifier and fatty acid ester used as a control additive. For Control 2 and Inventive Ex. 1-Adj, the first pass and second pass were mixed in the mixer, but the final pass was mixed on the mill. Inventive Ex. 1-Adj was split into three (3) to allow for three (3) different cure adjustments to try to increase the Ts2 (the […] time for the viscosity to increase 2 units above minimum torque (ML)), slightly reduce Tc90 (the time it takes to get to 90% of the maximum state of cure/cross-linking (MH or maximum torque)), and increase the maximum torque (MH) to more closely match the Moving Die Rheometer (MDR) curve of the control compound.

As to `CCCCCCCC/C=C\CCCCCCCC(=O)NCCNCCN` [Inventive Ex. 1, diethylenetriamine (DETA) oleic acid amidoamine], the “Pour Point” value in data set [1] was found to be 36. Moreover, the “Flash Point” value in data set [2] is over 200 C.
Regarding `CCCCCCCC/C=C\CCCCCCCC1=NCCN1CCN` [Inventive Ex. 2, diethylenetriamine (DETA) oleic acid imidazoline], in data set [3], the “Water Solubility” value is listed as “Partial ~2%”. For the same compound, the “Pour Point” value in data set [1] is reported as −27. The “Flash Point” value in data set [2] is listed as over 200 C.
`CCCCCCCC/C=C\CCCCCCCC(=O)NCCNCCNC(=O)CCCCCCC/C=C\CCCCCCCC` [Inventive Ex. 3, diethylenetriamine (DETA) oleic acid bisamide]: the “Water Solubility” value in data set [3] is recorded as “none”. For the same compound, in data set [1], the “Pour Point” value came out at 78. Moreover, in data set [2], the “Flash Point” value is over 200 C.
For the compound `CCCCCCCC/C=C\CCCCCCCC(=O)NCCCN(C)C` [Inventive Ex. 6, dimethylaminopropylamine (DMAPA) oleic acid amidoamine], the “Pour Point” value in data set [1] was 0. In addition, the “Flash Point” value in data set [2] stood at 113 C.
Regarding “tetraethylenepentamine (TEPA) oleic acid amidoamine [Inventive Ex. 5]”, the “Pour Point” value in data set [1] is given as −12. The “Flash Point” value in data set [2] is reported as over 200 C.
